# Reference: patent US8945061B2, “Otic formulations, methods and devices” (Entrx LLC, priority 2012, dated 2015)
# Key:
# fungus and bacteria = settings: published literature; cited from earlier work
# C. lusitaniae = settings: n=1 strain, 48 hours, prominent growth reduction endpoint
# C. krusei = settings: n=5 strains, 48 hours, prominent growth reduction endpoint
# C. glabrata = settings: n=5 strains, 48 hours, prominent growth reduction endpoint
# Pseudomonas = settings: cited from earlier work
# C. parapsilosis = settings: n=1 strain, 48 hours, prominent growth reduction endpoint
# C. tropicalis = settings: n=5 strains, 48 hours, prominent growth reduction endpoint
# C. albicans = settings: n=5 strains, 48 hours, prominent growth reduction endpoint
# A. fumigatus = settings: n=5 strains, 48 hours, prominent growth reduction endpoint
# Staphlococcus aureus = settings: cited from earlier work
# A. niger = settings: n=5 strains, 48 hours, prominent growth reduction endpoint
# [1] = tested on: 22 Candida spp. and 10 Aspergillus spp.; settings: all yeasts and moulds tested; judged from high MICs
structure (smiles),measurement,setting,value
"C[C@@H]1[C@H](O)[C@@H](C)/C=C/C=C/CC/C=C/C=C/C=C/C=C/C(O[C@H]2O[C@H](C)[C@@H](O)[C@H](N)[C@@H]2O)CC2O[C@](O)(CC(O)C(O)CCC(O)CC(O)CC(O)CC(=O)O[C@H]1C)CC(O)C2C(=O)O (some centres unmarked) [Nystatin, nystatin]",Spectrum of Efficacy,fungus and bacteria,primarily fungistatic at low concentrations against biphasic
Cc1cccc(N(C)C(=S)Oc2ccc3ccccc3c2)c1 [tolnaftate],Spectrum of Efficacy,fungus and bacteria,Fungistatic for dermatophytes and Tinea Versicoior
"Clc1ccccc1C(c1ccccc1)(c1ccccc1)n1ccnc1 [CTZ, clotrimazole]",MIC range,C. lusitaniae,≦0.015 mcg/ml
same,MIC range,C. krusei,0.06 to 0.125 µg/mL
same,MIC range,C. glabrata,0.25 to 1 µg/mL
same,antibacterial activity,Pseudomonas,demonstrated antibacterial activity
same,MIC range,C. parapsilosis,0.06 µg/mL
same,MIC range,C. tropicalis,0.06 to 2 µg/mL
same,MIC range,C. albicans,≦0.015 mcg/ml
same,Spectrum of Efficacy,fungus and bacteria,"Aspergillus fiavus, Aspergilius fumigatus, Blastomyces"
same,MIC range,A. fumigatus,0.25 to 0.5 µg/mL
same,antibacterial activity,Staphlococcus aureus,demonstrated antibacterial activity
same,MIC range,A. niger,0.5 to 1 µg/mL
"O=C(O)c1cn(C2CC2)c2cc(N3CCNCC3)c(F)cc2c1=O [CIPRO, ciprofloxacin]",antifungal activity on its own,[1],no antifungal activity on its own
